Source: patent US20230174649A1, “PHARMACEUTICAL COMPOSITIONS CONTAINING ANTI-CD47 ANTIBODIES” (I-MAB BIOPHARMA US LIMITED, priority 2020, published 2023)

Test system: HL-60 cells
Experiment: Anti-tumor efficacy in subcutaneous HL-60 xenograft model
Type: in vivo, female NOG mice
Details: for antitumor activity compared with the control group: day 12; for Tumor volume / Tumor Size (mm^3) at day 12, Mean ± SEM: listed as AZA
Method: HL-60 cells (a human promyelocytic leukemia cell line, ATCC® cat #CCL-240) were maintained in suspension culture in complete cell growth medium at 37° C. in an atmosphere with 5% CO2. The cells were split twice a week to maintain an exponential growth. After culturing, cells were harvested and counted for tumor inoculation.
To establish the xenograft model, HL-60 cells (10×10^6) were suspended in 0.2 mL of PBS with the same volume of Matrigel and subcutaneously injected into the right flank of each mouse. When tumor volume reaches a mean value of approximately 72 mm^3, i.e., on day 6 after inoculation, mice were divided into several groups and treated with PBS (control group), anti-CD47 antibody (i.e., T4J), AZA, or a combination of T4J and AZA, respectively.
At the time of routine monitoring, the animals were daily checked for any effects of tumor growth and treatments on normal behavior such as mobility, food and water consumption (by looking only), body weight gain/loss (body weights were measured twice a week), eye/hair matting and any other abnormal effects. Death and observed clinical signs were recorded.
Tumor size was measured twice a week in two dimensions using a caliper, and the volume was calculated using the formula: Volume (V)=(L×W×W)/2, where L is tumor length (the longest tumor dimension) and W is tumor width (the longest tumor dimension perpendicular to L). The tumor volume was then used for calculating T/C values. The T/C value (in percentage) is an indicator of antitumor effectiveness, in which T and C are the mean volumes of the treatment group and the control groups, respectively.
The percentage of tumor growth inhibition (TGI) was calculated for each group as follows: 100%×(1−[(Vtreated(^final day)−Vtreated(^initial day))/Vcontrol(^final day)−Vcontrol(^initial day)))], where V is the tumor volume.
Tumor body weight was measured at the end of the study. T/C weight value (in percentage) was calculated using the formula: T/C weight %=T weight/C weight×100% where T weight and C weight were the mean tumor body weight of the treatment group and the control group (vehicle group), respectively.
Q=TGI(A+B))/(TGI(A)+TGI(B)−TGI(A)×TGI(B))
According to Jin's formula, Q<0.85 indicates antagonistic effect, 0.85≤Q<1.15 indicates additive effect, and Q≥1.15 indicates synergistic effect.
T-test was performed to compare tumor body weight among groups. One-way ANOVA was performed to compare tumor volume among groups, and when a significant F-statistics (a ratio of treatment variance to the error variance) was obtained, comparisons between groups were carried out with Games-Howell test. All data were analyzed using IBM SPSS software. A P value of less than 0.05 (p<0.05) was considered statistically significant.

## Nc1ncn([C@@H]2O[C@H](CO)[C@@H](O)[C@H]2O)c(=O)n1 [Azacitidine]
1 mg/kg
  antitumor activity compared with the control group: no obvious antitumor activity
2 mg/kg
  antitumor activity compared with the control group: certain anti-tumor activity
Day 0 (first dosing), 1 mg/kg
  Tumor volume (mm^3), Mean ± SEM: 70 ± 7 mm^3
Day 0 (first dosing), 2 mg/kg
  Tumor volume (mm^3), Mean ± SEM: 70 ± 7 mm^3
Day 3, 1 mg/kg
  Tumor volume (mm^3), Mean ± SEM: 189 ± 11 mm^3
Day 3, 2 mg/kg
  Tumor volume (mm^3), Mean ± SEM: 161 ± 20 mm^3
Day 7, 1 mg/kg
  Tumor volume (mm^3), Mean ± SEM: 589 ± 41 mm^3
Day 7, 2 mg/kg
  Tumor volume (mm^3), Mean ± SEM: 498 ± 82 mm^3
Day 10, 1 mg/kg
  Tumor volume (mm^3), Mean ± SEM: 1142 ± 86 mm^3
Day 10, 2 mg/kg
  Tumor volume (mm^3), Mean ± SEM: 773 ± 145 mm^3
Day 12, 1 mg/kg
  T/C (%): 70.21%
  TGI (%): 30.52%
  Tumor volume / Tumor Size (mm^3) at day 12, Mean ± SEM: 2081±177 mm^3
Day 12, 2 mg/kg
  T/C (%): 48.98%
  TGI (%): 52.27%
  Tumor volume / Tumor Size (mm^3) at day 12, Mean ± SEM: 1452±253 mm^3
